Where two headings read alike, the source gives them in different places.
Legend:
UM-UC-9 engineered cells = experiment: Cell proliferation / short-term viability assay, CellTiter-Glo 144 h; assay type: cell-based, human; settings: read-out: CTGlo 144 h UMUC9.5, G150
How it was run: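 UM-UC-9 engineered assay-ready cells seeded at 500 cells/well in high-glucose DMEM/10% FBS, treated from dose-response plates, grown at 37° C, 5% CO2. CellTiter-Glo 2.0 luminescence read on day 7, with a day-0 pretreatment plate as T0 reference and DMSO wells as negative control.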

His6-TEV-PPARγ-(234-505) = target: T1, His6-TEV-PPARγ-(234-505) (Homo sapiens, UniProt P37231); experiment: TR-FRET Assay to Measure Co-R Peptide Recruitment to PPARγ; assay type: biochemical; settings: Co-R peptide (SMRT-ID2) recruitment; top final concentration 20 μM; read-out: TR-FRET i-Ag; AC50
T1 construct: The His6-TEV-PPARγ-(234-505) protein for assay was expressed and purified; TEV cleavage site (N); made in house
T1 sequence (P37231 234-505): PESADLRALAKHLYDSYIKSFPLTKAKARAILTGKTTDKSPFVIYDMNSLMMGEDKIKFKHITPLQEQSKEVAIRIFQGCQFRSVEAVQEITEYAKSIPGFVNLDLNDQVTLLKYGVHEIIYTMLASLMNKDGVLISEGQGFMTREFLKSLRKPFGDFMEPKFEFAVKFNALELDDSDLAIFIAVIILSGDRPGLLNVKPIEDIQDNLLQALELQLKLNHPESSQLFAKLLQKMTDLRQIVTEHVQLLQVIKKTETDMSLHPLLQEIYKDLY
How it was run: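 His-tagged PPARγ (or controls) was preincubated with compound for 20 minutes at room temperature, then 5 nM anti-His terbium antibody and 200 nM FITC-labeled SMRT-ID2 corepressor peptide (final) were added for a further hour. TR-FRET signal was normalized to percent response using 500 nM T0070907 and DMSO controls.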

Structure (SMILES)	IC50 (UM-UC-9 engineered cells) [nM]	AC50 (His6-TEV-PPARγ-(234-505)) [nM]	IC50 (UM-UC-9 engineered cells; Homo sapiens, UM-UC-9, 144 h) [nM]
COc1cc(-c2cc(C(=O)N3CCC(C(=O)NC4CCN(c5cnnc(C)c5)C4)CC34CC4)n[nH]2)c(F)cn1 (mixture of isomers) [Example 452, (S)-4-(5-(5-fluoro-2-methoxypyridin-4-yl)-1H-pyrazole-3-carbonyl)-N—((S)-1-(6-methylpyridazin-4-yl)pyrrolidin-3-yl)-4-azaspiro[2.5]octane-7-carboxamide and ('S)-4-(5-(5-fluoro-2-methoxypyridin-4-yl)-1H-pyrazole-3-carbonyl)-N—((R)-1-(6-methylpyridazin-4-yl)pyrrolidin-3-yl)-4-azaspiro[2.5]octane-7-carboxamide]	2390	33.4	–
COc1cc(-c2cc(C(=O)N3CCC(C(=O)NC4CCN(c5cnc(C)nc5)C4)CC34CC4)n[nH]2)c(F)cn1 (mixture of isomers) [Example 453, (S)-4-(5-(5-fluoro-2-methoxypyridin-4-yl)-1H-pyrazole-3-carbonyl)-N—((S)-1-(2-methylpyrimidin-5-yl)pyrrolidin-3-yl)-4-azaspiro[2.5]octane-7-carboxamide and (S)-4-(5-(5-fluoro-2-methoxypyridin-4-yl)-1H-pyrazole-3-carbonyl)-N—((R)-1-(2-methylpyrimidin-5-yl)pyrrolidin-3-yl)-4-azaspiro[2.5]octane-7-carboxamide]	44.2	25.6	–
COc1cc(-c2cc(C(=O)N3CCC(C(=O)NC4CCN(CC5(O)COC5)C4)CC34CC4)n[nH]2)c(F)cn1 (mixture of isomers) [Example 454, (S)-4-(5-(5-fluoro-2-methoxypyridin-4-yl)-1H-pyrazole-3-carbonyl)-N—((R)-1-((3-hydroxyoxetan-3-yl)methyl)pyrrolidin-3-yl)-4-azaspiro[2.5]octane-7-carboxamide and (S)-4-(5-(5-fluoro-2-methoxypyridin-4-yl)-1H-pyrazole-3-carbonyl)-N—((S)-1-((3-hydroxyoxetan-3-yl)methyl)pyrrolidin-3-yl)-4-azaspiro[2.5]octane-7-carboxamide]	999	196	–
COc1cc(-c2cc(C(=O)N3CCC(C(=O)NC4CCN(CC(F)(F)CO)C4)CC34CC4)n[nH]2)c(F)cn1 (mixture of isomers) [Example 459, (S)—N—((S)-1-(2,2-difluoro-3-hydroxypropyl)pyrrolidin-3-yl)-4-(5-(5-fluoro-2-methoxypyridin-4-yl)-1H-pyrazole-3-carbonyl)-4-azaspiro[2.5]octane-7-carboxamide and (S)—N—((R)-1-(2,2-difluoro-3-hydroxypropyl)pyrrolidin-3-yl)-4-(5-(5-fluoro-2-methoxypyridin-4-yl)-1H-pyrazole-3-carbonyl)-4-azaspiro[2.5]octane-7-carboxamide]	102	11.7	–
COc1cc(-c2cc(C(=O)N3CCC(C(=O)NC4CCN(C5COC56CNC6)C4)CC34CC4)n[nH]2)c(F)cn1 (mixture of isomers) [Example 461]	> 10000	440	–
COc1cc(-c2cc(C(=O)N3CCC(C(=O)NCc4ncc(N5CC6CC5CN6)cc4Cl)CC34CC4)n[nH]2)c(F)cn1 (mixture of isomers) [Example 462, (S)—N-((5-((1R,4R)-2,5-diazabicyclo[2.2.1]heptan-2-yl)-3-chloropyridin-2-yl)methyl)-4-(3-(5-fluoro-2-methoxypyridin-4-yl)-1H-pyrazole-5-carbonyl)-4-azaspiro[2.5]octane-7-carboxamide and (S)—N-((5-((1S,4S)-2,5-diazabicyclo[2.2.1]heptan-2-yl)-3-chloropyridin-2-yl)methyl)-4-(3-(5-fluoro-2-methoxypyridin-4-yl)-1H-pyrazole-5-carbonyl)-4-azaspiro[2.5]octane-7-carboxamide]	513	14.1	–
COc1cc(-c2cc(C(=O)N3CCC(C(=O)NC4CCN(C5COC56CCC6)C4)CC34CC4)n[nH]2)c(F)cn1 (mixture of isomers) [Example 464]	36.4	9.3	–
COc1cc(-c2cc(C(=O)N3CCC(C(=O)Nc4cnn5ccc(C6CC6C#N)nc45)CC34CC4)n[nH]2)c(F)cn1 (mixture of isomers) [Example 466, (S)—N-(5-((1S,2S)-2-cyanocyclopropyl)pyrazolo[1,5-a]pyrimidin-3-yl)-4-(5-(5-fluoro-2-methoxypyridin-4-yl)-1H-pyrazole-3-carbonyl)-4-azaspiro[2.5]octane-7-carboxamide and (S)—N-(5-((1R,2R)-2-cyanocyclopropyl)pyrazolo[1,5-a]pyrimidin-3-yl)-4-(5-(5-fluoro-2-methoxypyridin-4-yl)-1H-pyrazole-3-carbonyl)-4-azaspiro[2.5]octane-7-carboxamide]	51.2	5.1	–
COc1cc(-c2cc(C(=O)N3CC[C@H](C(=O)NCc4ncc(N5C[C@H]6C[C@@H]5CN6)cn4)CC34CC4)[nH]n2)c(F)cn1 (mixture of isomers) [Example 467, (S)—N-((5-((1R,4R)-2,5-diazabicyclo[2.2.1]heptan-2-yl)pyrimidin-2-yl)methyl)-4-(3-(5-fluoro-2-methoxypyridin-4-yl)-1H-pyrazole-5-carbonyl)-4-azaspiro[2.5]octane-7-carboxamide and (S)—N-((5-((1S,4S)-2,5-diazabicyclo[2.2.1]heptan-2-yl)pyrimidin-2-yl)methyl)-4-(3-(5-fluoro-2-methoxypyridin-4-yl)-1H-pyrazole-5-carbonyl)-4-azaspiro[2.5]octane-7-carboxamide]	–	951	> 10000
COc1cc(-c2cc(C(=O)N3CCC(C(=O)NCc4ncc(N5CCNC6CC65)cn4)CC34CC4)n[nH]2)c(F)cn1 (mixture of isomers) [Example 469, (S)—N-((5-((1S,6R)-2,5-diazabicyclo[4.1.0]heptan-2-yl)pyrimidin-2-yl)methyl)-4-(3-(5-fluoro-2-methoxypyridin-4-yl)-1H-pyrazole-5-carbonyl)-4-azaspiro[2.5]octane-7-carboxamide and (S)—N-((5-((1R,6S)-2,5-diazabicyclo[4.1.0]heptan-2-yl)pyrimidin-2-yl)methyl)-4-(3-(5-fluoro-2-methoxypyridin-4-yl)-1H-pyrazole-5-carbonyl)-4-azaspiro[2.5]octane-7-carboxamide]	9020	78.5	–
COc1cc(-c2cc(C(=O)N3CCC(C(=O)NC4CN(CC5(O)CC5)CC4(F)F)CC34CC4)n[nH]2)c(F)cn1 (mixture of isomers) [Example 470, (S)—N—((R)-4,4-difluoro-1-((1-hydroxycyclopropyl)methyl)pyrrolidin-3-yl)-4-(3-(5-fluoro-2-methoxypyridin-4-yl)-1-pyrazole-5-carbonyl)-4-azaspiro[2.5]octane-7-carboxamide and (S)—N—((S)-4,4-difluoro-1-((1-hydroxycyclopropyl)methyl)pyrrolidin-3-yl)-4-(3-(5-fluoro-2-methoxypyridin-4-yl)-1H-pyrazole-5-carbonyl)-4-azaspiro[2.5]octane-7-carboxamide]	897	112	–
COc1cc(-c2cc(C(=O)N3CCC(C(=O)NC4CCN(c5ncc(C#N)cn5)C4)CC34CC4)n[nH]2)c(F)cn1 (mixture of isomers) [Example 472, (S)—N—((R)-1-(5-cyanopyrimidin-2-yl)pyrrolidin-3-yl)-4-(5-(5-fluoro-2-methoxypyridin-4-yl)-1H-pyrazole-3-carbonyl)-4-azaspiro[2.5]octane-7-carboxamide and (S)—N—((S)-1-(5-cyanopyrimidin-2-yl)pyrrolidin-3-yl)-4-(5-(5-fluoro-2-methoxypyridin-4-yl)-1H-pyrazole-3-carbonyl)-4-azaspiro[2.5]octane-7-carboxamide]	24.2	2.9	–
COc1cc(-c2cc(C(=O)N3CCC(C(=O)NC4CCC(O)(C(F)(F)F)C(O)C4)CC34CC4)n[nH]2)c(F)cn1 (mixture of isomers) [Example 474-A]	6210	336	–
COc1cc(-c2cc(C(=O)N3CCC(C(=O)NC4CCC(O)(C(F)(F)F)C(O)C4)CC34CC4)n[nH]2)c(F)cn1 (mixture of isomers) [Example 474-B]	50.6	4.6	–
CC(O)c1cc(-c2cc(C(=O)N3CCC(C(=O)NCc4ncc(F)cc4Cl)CC34CC4)n[nH]2)c(F)cn1 (mixture of isomers) [Example 478]	415	38.8	–
COc1cc(-c2cc(C(=O)N3CCC(C(=O)NC4CCCn5ccnc54)CC34CC4)n[nH]2)c(F)cn1 (mixture of isomers) [Example 479, (S)-4-(5-(5-fluoro-2-methoxypyridin-4-yl)-1H-pyrazole-3-carbonyl)-N—((R)-5,6,7,8-tetrahydroimidazo[1,2-a]pyridin-8-yl)-4-azaspiro[2.5]octane-7-carboxamide and (S)-4-(5-(5-fluoro-2-methoxypyridin-4-yl)-1H-pyrazole-3-carbonyl)-N—((S)-5,6,7,8-tetrahydroimidazo[1,2-a]pyridin-8-yl)-4-azaspiro[2.5]octane-7-carboxamide]	1470	132	–

Reference: patent publication US12606541B2, “PPARg modulators and methods of use” (Eisai R&D Management Co., Ltd., priority 2020, dated 2026)
